Assay [1] has as its target T1, Serine/threonine-protein kinase Nek9 (Homo sapiens) (UniProt Q8TD19).
T1 sequence (whole entry): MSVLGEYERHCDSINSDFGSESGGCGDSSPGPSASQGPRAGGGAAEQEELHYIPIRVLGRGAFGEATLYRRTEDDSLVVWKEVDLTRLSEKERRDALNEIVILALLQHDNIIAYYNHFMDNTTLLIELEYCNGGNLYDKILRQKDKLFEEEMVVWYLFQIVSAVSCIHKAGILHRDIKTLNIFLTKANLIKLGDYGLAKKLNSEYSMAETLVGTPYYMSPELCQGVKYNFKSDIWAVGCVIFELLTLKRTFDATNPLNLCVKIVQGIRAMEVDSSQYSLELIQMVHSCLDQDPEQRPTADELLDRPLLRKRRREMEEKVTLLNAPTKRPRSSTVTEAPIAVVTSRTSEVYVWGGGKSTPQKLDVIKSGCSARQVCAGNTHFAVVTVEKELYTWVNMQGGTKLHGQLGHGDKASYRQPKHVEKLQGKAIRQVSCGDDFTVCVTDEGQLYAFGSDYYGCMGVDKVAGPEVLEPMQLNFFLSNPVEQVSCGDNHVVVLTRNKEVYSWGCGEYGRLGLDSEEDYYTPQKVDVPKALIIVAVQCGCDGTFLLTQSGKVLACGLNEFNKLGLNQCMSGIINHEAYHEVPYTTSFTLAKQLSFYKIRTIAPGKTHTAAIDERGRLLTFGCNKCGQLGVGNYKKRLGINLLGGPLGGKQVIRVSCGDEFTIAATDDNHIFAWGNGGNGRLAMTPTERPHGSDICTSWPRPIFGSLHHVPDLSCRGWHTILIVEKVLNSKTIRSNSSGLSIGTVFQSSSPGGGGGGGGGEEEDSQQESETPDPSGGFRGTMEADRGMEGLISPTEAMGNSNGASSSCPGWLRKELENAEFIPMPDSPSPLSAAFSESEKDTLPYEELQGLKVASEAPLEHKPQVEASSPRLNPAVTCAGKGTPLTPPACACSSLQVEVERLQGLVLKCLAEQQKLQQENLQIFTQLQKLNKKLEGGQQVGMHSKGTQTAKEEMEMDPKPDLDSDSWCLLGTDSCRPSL
Nature of the assay: Selectivity interaction (KinomeScan (DiscoverX)) EUB0000666a NEK9. Particulars: at 10 µM.

Assay [2] addresses Sphingosine kinase 1 (Homo sapiens) (UniProt Q9NYA1). Nature of the assay: Selectivity interaction (Adapta Assay) EUB0001632a SPHK1. Particulars: at 10 µM.
The target of assay [3] is Leucine-rich repeat serine/threonine-protein kinase 2 (Homo sapiens, UniProt Q5S007). Nature of the assay: Selectivity interaction (Kinase panel (Invitrogen)) EUB0000639a LRRK2. To be noted: at 200 nM.
Assay [4] deals with Phosphatidylinositol 4,5-bisphosphate 3-kinase catalytic subunit gamma isoform (Homo sapiens) (UniProt P48736). Nature of the assay: Selectivity interaction (Kinase panel (KiNativ target engagement assay in Jurkat cells)) EUB0001635a PIK3CG. The format is cell-based. Particulars: at 1 µM.
The target of assay [5] is T2, Hormonally up-regulated neu tumor-associated kinase (Homo sapiens) (UniProt P57058).
T2 sequence (whole entry): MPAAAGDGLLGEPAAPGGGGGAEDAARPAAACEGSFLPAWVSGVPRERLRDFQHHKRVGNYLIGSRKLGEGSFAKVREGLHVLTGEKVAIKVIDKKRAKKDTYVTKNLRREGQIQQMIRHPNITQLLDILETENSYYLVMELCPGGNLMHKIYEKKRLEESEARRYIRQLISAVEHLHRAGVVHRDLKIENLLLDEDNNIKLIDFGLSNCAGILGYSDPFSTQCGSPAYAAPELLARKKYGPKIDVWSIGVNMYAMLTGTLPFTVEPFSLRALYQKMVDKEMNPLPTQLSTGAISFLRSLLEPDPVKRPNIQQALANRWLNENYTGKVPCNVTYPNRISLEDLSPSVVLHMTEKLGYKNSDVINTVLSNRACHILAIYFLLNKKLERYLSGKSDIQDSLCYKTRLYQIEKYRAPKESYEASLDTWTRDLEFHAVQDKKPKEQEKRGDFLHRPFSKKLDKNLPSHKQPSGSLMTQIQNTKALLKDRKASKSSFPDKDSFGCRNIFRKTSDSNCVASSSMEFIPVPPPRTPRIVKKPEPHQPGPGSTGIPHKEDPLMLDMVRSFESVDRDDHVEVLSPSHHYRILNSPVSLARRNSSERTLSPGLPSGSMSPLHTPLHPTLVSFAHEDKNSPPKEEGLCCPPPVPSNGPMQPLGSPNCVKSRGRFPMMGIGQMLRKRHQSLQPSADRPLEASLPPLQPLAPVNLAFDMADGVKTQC
Nature of the assay: Selectivity interaction (KinomeScan (DiscoverX)) EUB0000618a HUNK. Particulars: at 10 µM.

This is an account of results in ChEMBL document CHEMBL5465560, “Selectivity Literature for EUbOPEN Chemogenomic Library” (2024).

Sequence of Phosphatidylinositol 4,5-bisphosphate 3-kinase catalytic subunit gamma isoform (Homo sapiens) (P48736 whole entry, looked up, canonical isoform): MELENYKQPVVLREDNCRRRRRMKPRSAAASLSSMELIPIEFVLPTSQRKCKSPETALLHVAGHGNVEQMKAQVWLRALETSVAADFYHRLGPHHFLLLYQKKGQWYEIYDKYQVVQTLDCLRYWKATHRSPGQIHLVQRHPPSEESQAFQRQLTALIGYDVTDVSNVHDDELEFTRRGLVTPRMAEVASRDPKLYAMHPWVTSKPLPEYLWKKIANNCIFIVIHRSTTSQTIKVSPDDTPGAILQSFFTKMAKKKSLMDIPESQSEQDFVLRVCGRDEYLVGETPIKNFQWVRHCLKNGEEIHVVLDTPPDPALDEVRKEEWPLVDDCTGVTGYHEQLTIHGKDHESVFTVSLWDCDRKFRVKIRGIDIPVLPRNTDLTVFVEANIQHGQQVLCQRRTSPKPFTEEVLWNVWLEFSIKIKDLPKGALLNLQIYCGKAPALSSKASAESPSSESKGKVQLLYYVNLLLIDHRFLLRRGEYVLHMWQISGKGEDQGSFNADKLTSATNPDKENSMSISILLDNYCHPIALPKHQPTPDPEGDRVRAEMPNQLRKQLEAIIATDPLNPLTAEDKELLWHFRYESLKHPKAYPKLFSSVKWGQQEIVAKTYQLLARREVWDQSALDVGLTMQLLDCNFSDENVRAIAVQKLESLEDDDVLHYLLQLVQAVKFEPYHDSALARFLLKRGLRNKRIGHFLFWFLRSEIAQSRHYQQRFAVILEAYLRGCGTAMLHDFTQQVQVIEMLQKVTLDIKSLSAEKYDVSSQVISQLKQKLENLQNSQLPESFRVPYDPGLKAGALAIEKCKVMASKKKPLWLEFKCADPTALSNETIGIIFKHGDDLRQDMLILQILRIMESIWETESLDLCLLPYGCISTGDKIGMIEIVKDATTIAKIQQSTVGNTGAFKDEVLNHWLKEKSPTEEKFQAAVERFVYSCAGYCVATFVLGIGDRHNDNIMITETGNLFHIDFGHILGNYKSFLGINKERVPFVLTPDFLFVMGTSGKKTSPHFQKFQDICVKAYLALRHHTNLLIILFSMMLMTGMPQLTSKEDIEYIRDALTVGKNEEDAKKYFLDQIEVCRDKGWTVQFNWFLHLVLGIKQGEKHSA
Sequence of Leucine-rich repeat serine/threonine-protein kinase 2 (Q5S007 whole entry, canonical isoform): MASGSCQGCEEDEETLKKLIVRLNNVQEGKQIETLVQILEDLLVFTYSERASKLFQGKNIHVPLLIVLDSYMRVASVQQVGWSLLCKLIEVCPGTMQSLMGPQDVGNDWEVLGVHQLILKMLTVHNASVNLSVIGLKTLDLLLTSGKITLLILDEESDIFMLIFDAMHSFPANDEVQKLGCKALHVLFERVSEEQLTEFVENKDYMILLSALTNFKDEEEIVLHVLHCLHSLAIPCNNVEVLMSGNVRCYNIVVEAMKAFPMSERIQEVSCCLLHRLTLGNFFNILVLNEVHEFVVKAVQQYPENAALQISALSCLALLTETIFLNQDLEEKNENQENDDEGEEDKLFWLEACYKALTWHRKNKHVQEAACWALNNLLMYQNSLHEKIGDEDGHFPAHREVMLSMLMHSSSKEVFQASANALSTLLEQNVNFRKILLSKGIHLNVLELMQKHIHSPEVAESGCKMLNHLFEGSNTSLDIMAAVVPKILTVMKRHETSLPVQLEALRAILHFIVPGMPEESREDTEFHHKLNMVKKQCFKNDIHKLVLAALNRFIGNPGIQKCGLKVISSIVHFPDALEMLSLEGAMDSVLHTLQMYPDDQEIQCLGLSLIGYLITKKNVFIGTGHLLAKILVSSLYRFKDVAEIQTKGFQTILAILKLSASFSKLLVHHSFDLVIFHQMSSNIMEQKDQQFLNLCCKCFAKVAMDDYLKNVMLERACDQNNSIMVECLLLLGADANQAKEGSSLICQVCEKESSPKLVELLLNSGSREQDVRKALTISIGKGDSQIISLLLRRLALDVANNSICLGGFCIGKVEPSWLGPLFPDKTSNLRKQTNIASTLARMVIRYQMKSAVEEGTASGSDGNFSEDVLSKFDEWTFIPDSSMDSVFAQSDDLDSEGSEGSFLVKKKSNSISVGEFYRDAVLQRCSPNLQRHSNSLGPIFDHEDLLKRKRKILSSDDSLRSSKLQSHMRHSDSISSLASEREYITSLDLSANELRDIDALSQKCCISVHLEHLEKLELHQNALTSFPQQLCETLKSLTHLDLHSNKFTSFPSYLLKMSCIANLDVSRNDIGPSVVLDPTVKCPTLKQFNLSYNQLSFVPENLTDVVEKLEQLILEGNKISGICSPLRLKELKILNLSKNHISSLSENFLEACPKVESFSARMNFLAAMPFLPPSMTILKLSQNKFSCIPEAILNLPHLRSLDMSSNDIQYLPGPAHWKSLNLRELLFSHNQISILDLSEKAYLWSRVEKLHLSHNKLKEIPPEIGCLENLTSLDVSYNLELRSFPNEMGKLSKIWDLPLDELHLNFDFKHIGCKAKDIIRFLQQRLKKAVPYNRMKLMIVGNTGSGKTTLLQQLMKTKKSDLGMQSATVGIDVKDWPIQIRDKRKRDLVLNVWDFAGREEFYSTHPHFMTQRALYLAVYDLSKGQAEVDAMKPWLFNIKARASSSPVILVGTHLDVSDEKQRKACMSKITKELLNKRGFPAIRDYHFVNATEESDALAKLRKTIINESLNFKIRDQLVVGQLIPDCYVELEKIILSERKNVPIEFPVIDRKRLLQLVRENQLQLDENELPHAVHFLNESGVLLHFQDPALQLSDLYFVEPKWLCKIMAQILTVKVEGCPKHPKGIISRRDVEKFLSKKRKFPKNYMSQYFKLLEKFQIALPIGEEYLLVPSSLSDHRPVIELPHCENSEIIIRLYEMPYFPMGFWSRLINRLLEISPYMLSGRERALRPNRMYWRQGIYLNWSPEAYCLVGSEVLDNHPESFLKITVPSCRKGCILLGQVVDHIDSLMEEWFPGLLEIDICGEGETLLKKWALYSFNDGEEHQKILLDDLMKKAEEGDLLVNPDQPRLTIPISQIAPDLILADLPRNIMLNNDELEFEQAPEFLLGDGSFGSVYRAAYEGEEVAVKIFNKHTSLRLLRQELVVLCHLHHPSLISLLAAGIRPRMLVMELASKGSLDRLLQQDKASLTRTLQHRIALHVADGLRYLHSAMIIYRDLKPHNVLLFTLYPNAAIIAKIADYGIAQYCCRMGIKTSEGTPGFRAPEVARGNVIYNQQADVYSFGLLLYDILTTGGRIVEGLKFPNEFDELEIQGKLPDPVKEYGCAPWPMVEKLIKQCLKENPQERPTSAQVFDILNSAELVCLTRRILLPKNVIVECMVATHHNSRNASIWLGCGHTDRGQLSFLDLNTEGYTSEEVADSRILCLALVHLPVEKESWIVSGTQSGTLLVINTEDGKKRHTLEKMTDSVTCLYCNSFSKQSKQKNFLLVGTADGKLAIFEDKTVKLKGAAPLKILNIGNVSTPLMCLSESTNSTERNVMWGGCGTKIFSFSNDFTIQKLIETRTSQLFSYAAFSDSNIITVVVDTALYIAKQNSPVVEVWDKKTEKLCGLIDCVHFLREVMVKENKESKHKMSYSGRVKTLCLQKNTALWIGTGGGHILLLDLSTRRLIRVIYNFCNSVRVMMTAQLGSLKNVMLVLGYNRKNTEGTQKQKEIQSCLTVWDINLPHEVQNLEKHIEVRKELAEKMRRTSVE
Sequence of Sphingosine kinase 1 (Homo sapiens) (Q9NYA1 whole entry): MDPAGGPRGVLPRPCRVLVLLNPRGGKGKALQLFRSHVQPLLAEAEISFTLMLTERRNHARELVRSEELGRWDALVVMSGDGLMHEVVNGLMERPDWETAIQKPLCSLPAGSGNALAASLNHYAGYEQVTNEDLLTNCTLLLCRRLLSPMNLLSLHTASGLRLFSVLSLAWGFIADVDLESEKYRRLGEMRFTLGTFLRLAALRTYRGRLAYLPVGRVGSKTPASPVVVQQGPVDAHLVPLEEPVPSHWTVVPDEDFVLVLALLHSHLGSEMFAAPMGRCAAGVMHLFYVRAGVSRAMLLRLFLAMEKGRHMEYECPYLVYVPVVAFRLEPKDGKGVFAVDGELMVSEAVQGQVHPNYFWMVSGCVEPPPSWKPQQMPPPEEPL

In turn, `O=C(NOC[C@H](O)CO)c1ccc(F)c(F)c1Nc1ccc(I)cc1F` returned a % of control in assay [1] of 82%. The compound `Cn1cc(-n2cnc3c(NCc4nc5cc(Cl)c(Cl)cc5[nH]4)nc(N4CCOCC4)nc32)cn1` yielded a % of inhibition in assay [2] of 53.7%. On to `CC[C@@H]1[C@H](F)C(=O)N[C@@H]1COc1nccc2cc(C(N)=O)c(OC)cc12` [ZIMLOVISERTIB], for which, in assay [3], the % of inhibition worked out at 85.1%.

As to `C=CC(=O)Nc1ccc(C(=O)Nc2[nH]nc3c2CN(C(=O)N[C@H](CN(C)C)c2ccccc2)C3(C)C)cc1`, the % of engagement in assay [4] was -3.7%.

Compound `O[C@H]1CC[C@H](Nc2ncc3nc(Nc4c(F)cc(F)cc4F)n([C@H]4CCOC4)c3n2)CC1` gave a % of control in assay [5] of 89%.
